Assay results published in PMC6988422 (Molecular Plant Pathology, 2019).

Biological target: T1, CdgL (c-di-GMP receptor interacting with LysR; YajQ homologue, Le2538) (Lysobacter enzymogenes, UniProt A0A0S2DCE3)
T1 sequence (A0A0S2DCE3 1-160): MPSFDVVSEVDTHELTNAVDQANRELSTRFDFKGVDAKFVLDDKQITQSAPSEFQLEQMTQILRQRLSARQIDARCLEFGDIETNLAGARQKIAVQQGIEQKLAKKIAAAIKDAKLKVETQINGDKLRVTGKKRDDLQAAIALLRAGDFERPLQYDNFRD
Test: microscale thermophoresis
Assay type: binding

Nc1nc2c(ncn2[C@@H]2O[C@@H]3CO[P@](=O)(O)O[C@H]4[C@@H](O)[C@H](n5cnc6c(=O)[nH]c(N)nc65)O[C@@H]4CO[P@](=O)(O)O[C@H]3[C@H]2O)c(=O)[nH]1 [c-di-GMP]
Kd: 14.6 µM
